Assay results as given in patent US20070004689A1, “Antiangiogenic agents” (priority 2004, published 2007).

Test system: Rat hepatocyte suspensions
Assay: Hepatocyte incubations, rat
Format: in vitro ADME
Conditions: rat hepatocytes, NR = no reaction; for Hepatocyte Rat 60/120′ (1 uM): 60′ / Hepatocyte Rat 60/120′ (5 uM): 60′: 60 minutes; for Hepatocyte Rat 60/120′ (1 uM): 60′ / Hepatocyte Rat 60/120′ (1 uM): 120′: in % (unit assumed); for Hepatocyte Rat 60/120′ (5 uM): 60′ / Hepatocyte Rat 60/120′ (5 uM): 120′: unit assumed; for Hepatocyte Rat 60/120′ (5 uM): 120′ / Hepatocyte Rat 60/120′ (1 uM): 120′: 120 minutes
Experimental: Hepatocyte Incubations: An in vitro measure of metabolism using cells from rat and human liver. Rat and human hepatocyte suspensions (10^6 cells per mL of serum-free (H)CL15 culture medium) were incubated with 2 concentrations (1 and 5 μM) of each of the compounds. Stock solutions were prepared in DMSO, and were further diluted in culture medium to the final test concentrations. 7-Ethoxycoumarin (7-EC) were included as a positive control substrate for P450. A 0.1 M 7-EC stock solution was prepared in DMSO, and the final assay concentration was 100 μM. The reactions were initiated by the addition of the substrates, incubated at 37° C., and terminated after 0, 60 and 120 minutes by addition of acetonitrile. The positive 7-EC control reactions were stopped with perchloric acid or ZnSO4 and BaOH after 60-minutes of incubation. The reaction mixture was centrifuged to remove the cell debris, and the supernatant was used for subsequent analysis by HPLC/LC-MS. If necessary, the supernatants were flash frozen in liquid N2 and stored at −70° C. until further analysis. HPLC was used to analyze product formation from 7-EC. Analyses to determine the concentration of the test compounds were carried out using reverse phase HPLC with tandem mass spectrometric detection (LC-MS/MS). Samples were analyzed to measure the disappearance of parent compound over time. The rate of metabolism was estimated by fitting a curve to the data for each concentration against time using GraphPad Prism Version 3.02 software.

| Hepatocyte Rat 60/120′ (5 uM): 120′ | Hepatocyte Rat 60/120′ (1 uM): 120′ | SMILES | Hepatocyte Rat 60/120′ (1 uM): 60′ | Hepatocyte Rat 60/120′ (5 uM): 60′ |
| --- | --- | --- | --- | --- |
| 83% | 85 | COc1cc2c(cc1C(N)=O)CC[C@@H]1[C@@H]2CC[C@]2(C)CCC[C@@H]12 [Compound 57, (2-Methoxyestra-1,3,5(10)-trien-3-yl)-3-carboxamide] | 91 | 95% |
| 87% | 67 | COc1cc2c(cc1C(N)=O)CC[C@@H]1[C@@H]2CC[C@]2(C)C=CC[C@@H]12 [Compound 63, 3-carboxamide-2-methoxy-1,3,5(10)16-estratetraene] | 77 | 78% |

| SMILES | Hepatocyte Rat 60/120′ (5 uM): 120′ | Hepatocyte Rat 60/120′ (1 uM): 120′ | Hepatocyte Rat 60/120′ (1 uM): 60′ | Hepatocyte Rat 60/120′ (5 uM): 60′ |
| --- | --- | --- | --- | --- |
| COc1cc2c(cc1C(N)=O)CC[C@@H]1[C@@H]2CC[C@]2(C)C(=O)CC[C@@H]12 [Compound 54, 2-methoxy-17-oxoestra-1,3,5(10)-triene-3-carboxamide] | 101% |  | 78 | 95% |
| C=C1CC[C@H]2[C@@H]3CCc4cc(C(N)=O)c(OC)cc4[C@H]3CC[C@]12C [Compound 60, 2-Methoxy-17-methyleneestra-1,3,5(10)-triene-3-carboxamide] |  | 87 | 99 | 87% |
